Laboratory results from PMC10092844, “Inhibition profile of trifludimoxazin towards PPO2 target site mutations” (Pest Management Science, 2022).
Like-named read-outs stand apart in the source and are kept apart here.

Assays:
[1] = molecular target: T1, PPO2 ΔG210 in Escherichia coli hemG (Amaranthus tuberculatus, UniProt Q0NZW9, DEL210-210, cells depend on it); type: cell-based; conditions: read-out: IC50 (E. coli hemG growth)
T1 sequence (Q0NZW9 with tags, fused parts or gaps DEL210-210): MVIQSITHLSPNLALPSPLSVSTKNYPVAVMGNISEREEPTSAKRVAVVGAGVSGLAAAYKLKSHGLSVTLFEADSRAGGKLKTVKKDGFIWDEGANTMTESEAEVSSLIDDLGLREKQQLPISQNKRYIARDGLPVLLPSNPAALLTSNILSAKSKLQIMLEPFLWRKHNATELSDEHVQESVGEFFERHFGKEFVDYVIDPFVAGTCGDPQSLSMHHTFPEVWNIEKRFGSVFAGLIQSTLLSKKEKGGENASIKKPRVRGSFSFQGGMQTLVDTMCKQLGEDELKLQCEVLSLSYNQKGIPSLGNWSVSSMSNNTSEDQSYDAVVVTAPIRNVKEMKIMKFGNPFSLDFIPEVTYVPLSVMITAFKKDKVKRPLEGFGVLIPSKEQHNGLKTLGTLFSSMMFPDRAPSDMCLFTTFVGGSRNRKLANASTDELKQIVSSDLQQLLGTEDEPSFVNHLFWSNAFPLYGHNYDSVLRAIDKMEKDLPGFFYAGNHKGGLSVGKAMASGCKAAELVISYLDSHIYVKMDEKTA

PPO2 wild-type = PPO2 wild-type (Amaranthus tuberculatus, UniProt Q0NZW9); test: in vitro inhibition assay, recombinant PPO2 enzyme; type: biochemical
[2] = molecular target: T2, PPO2 wild-type in Escherichia coli hemG (Amaranthus tuberculatus, UniProt Q0NZW9); type: cell-based; conditions: read-out: IC50 (E. coli hemG growth)
T2 sequence (Q0NZW9 31-534): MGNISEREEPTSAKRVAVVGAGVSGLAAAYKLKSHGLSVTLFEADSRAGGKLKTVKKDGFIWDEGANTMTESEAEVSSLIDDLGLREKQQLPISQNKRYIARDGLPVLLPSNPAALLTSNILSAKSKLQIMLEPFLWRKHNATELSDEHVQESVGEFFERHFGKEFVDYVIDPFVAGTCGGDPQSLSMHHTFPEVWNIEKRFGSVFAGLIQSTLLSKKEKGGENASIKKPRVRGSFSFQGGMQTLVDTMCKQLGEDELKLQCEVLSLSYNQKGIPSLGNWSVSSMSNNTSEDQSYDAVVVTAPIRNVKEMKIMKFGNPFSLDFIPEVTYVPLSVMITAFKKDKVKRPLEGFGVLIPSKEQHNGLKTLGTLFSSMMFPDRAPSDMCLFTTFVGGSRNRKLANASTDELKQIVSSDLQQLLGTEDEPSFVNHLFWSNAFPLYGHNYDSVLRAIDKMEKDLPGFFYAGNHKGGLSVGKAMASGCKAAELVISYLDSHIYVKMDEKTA

E. coli hemG strain = test: E. coli hemG growth assay (strain sensitivity); type: cell-based, Escherichia coli; conditions: data not shown; probably impaired uptake or hydrolysis
[3] = system: T1 35S::AMATU PPO2 R128A ΔG210 Arabidopsis lines; test: herbicide treatment of transgenic Arabidopsis T1 lines; type: in vivo, Arabidopsis thaliana; conditions: foliar-applied 2×, 1×, 0.5× field dose, 7 days after treatment
[4] = system: T1 35S::AMATU PPO2 R128M ΔG210 Arabidopsis lines; test: as above; type: in vivo, Arabidopsis thaliana; conditions: foliar-applied 2×, 1×, 0.5× field dose, 7 days after treatment
[5] = system: T1 35S::AMATU PPO2 R128T ΔG210 Arabidopsis lines; test: as above; type: in vivo, Arabidopsis thaliana; conditions: foliar-applied 2×, 1×, 0.5× field dose, 7 days after treatment
[6] = system: T1 35S::AMATU PPO2 R128N ΔG210 Arabidopsis lines; test: as above; type: in vivo, Arabidopsis thaliana; conditions: foliar-applied 2×, 1×, 0.5× field dose, 7 days after treatment
[7] = system: T1 35S::AMATU PPO2 R128I ΔG210 Arabidopsis lines; test: as above; type: in vivo, Arabidopsis thaliana; conditions: foliar-applied 2×, 1×, 0.5× field dose, 7 days after treatment
[8] = system: PPO1 enzyme carrying A212T mutation; parameters: method as in PMID 31788953; conditions: cited from earlier work
[9] = Wild-type PPO2, recombinant protein activity in vitro

Q: With `CCOC(=O)C(C)OC(=O)c1cc(Oc2ccc(C(F)(F)F)cc2Cl)ccc1[N+](=O)[O-]` (stereo not shown) [Lactofen, lactofen] as the compound, how does the IC50 [1] read?
A: 357 nM

Q: And the IC50 (PPO2 wild-type; [9])?
A: 0.415 nM

Q: And the IC50 [2]?
A: 62.4 nM

Q: For `CS(=O)(=O)NC(=O)c1cc(Oc2ccc(C(F)(F)F)cc2Cl)ccc1[N+](=O)[O-]` [Fomesafen, fomesafen], which “sensitivity of E. coli hemG strain” value (E. coli hemG strain) is on record?
A: not sensitive

Q: And the IC50 (PPO2 wild-type; [9])?
A: 7.13 nM

Q: Which IC50 [1] does the source give for `CC(C)N(C)S(=O)(=O)NC(=O)c1cc(-n2c(=O)cc(C(F)(F)F)n(C)c2=O)c(F)cc1Cl` [Saflufenacil, saflufenacil] here?
A: 2120 nM

Q: What about the IC50 (PPO2 wild-type; read-out: IC50) of the same compound?
A: 1.89 nM

Q: And the “herbicide efficacy, visual assessment of plant growth” value (shortened to “herbicide efficacy, visual assessment”) [3]?
A: two T1 lines expressing R128A ΔG210 showed significant resistance at each applied rate

Q: And the IC50 [2]?
A: 31.9 nM

Q: What about the “herbicide efficacy, visual assessment” value [4] of the same compound?
A: few T1 plants showed persistent growth with saflufenacil at the 2× and 0.5× rate

Q: For `C#CCN1C(=O)C(F)(F)Oc2cc(F)c(-n3c(=O)n(C)c(=S)n(C)c3=O)cc21` [Trifludimoxazin, trifludimoxazin], which “herbicide efficacy, visual assessment” value [5] is on record?
A: more reduced by trifludimoxazin than saflufenacil at each rate

Q: What about the IC50 [1] of the same compound?
A: 1.18 nM

Q: And the “herbicide efficacy, visual assessment” value [6]?
A: more reduced by trifludimoxazin than saflufenacil at each rate

Q: And the “herbicide efficacy, visual assessment” value [7]?
A: more controlled by trifludimoxazin than saflufenacil at all the used rates

Q: And the IC50 (PPO2 wild-type; Wild-type PPO2, recombinant protein activity in vitro, read-out: IC50)?
A: 0.245 nM

Q: And the “herbicide efficacy, visual assessment” value [3]?
A: reduced plant growth at 2×, 1× and 0.5× the rate of all five T1 plants

Q: What about the IC50 [2] of the same compound?
A: 0.927 nM

Q: What about the “herbicide efficacy, visual assessment” value [4] of the same compound?
A: reduced by both trifludimoxazin and saflufenacil at 1×

Q: What about the “inhibition of PPO1 A212T enzyme” value [8] of the same compound?
A: fully inhibit
